Laboratory results as given in patent US11413266B2, “Use of cannabinoids in the treatment of inflammatory skin diseases” (GW Pharma Limited, priority 2015, dated 2022).

Legend:
OEA = OEA levels in poly-(I:C)-stimulated HaCaT cells (LC-APCI-MS); format: cell-based, human; conditions: CBD 20 μM, 6 h
Method: (§1) HaCaT cells were plated into six-well culture plates at a cell density of 9×10^5 cells per well, and after 1 day were stimulated with poly-(I:C) (100 μg·ml-1) and treated with CBD (20 μM) or vehicle, and incubated for 6 h at 37° C. in 5% CO2.
(§2) After 6 h the resulting cells and supernatants were subjected to measurement of endocannabinoids such as N-arachidonoyl-ethanolamine (anandamide, AEA) and 2-arachidonoyl-glycerol (2-AG), and related N-acylethanolamines such as PEA and N oleoylethanolamine (OEA).
(§3) Cells and supernatants were homogenized in a solution of chloroform/methanol/Tris-HCl 50 mM pH 7.4 (2:1:1 by vol.) containing 10 pmol of [2H]8-AEA, and 5 pmol of [2H]5-2-AG, [2H]4-PEA and [2H]2-OEA as internal deuterated standards. The lipid-containing organic phase was pre-purified by open-bed chromatography on silica gel, and fractions obtained by eluting the column with a solution of chloroform/methanol (90:10 by vol.) were analyzed by liquid chromatography-atmospheric pressure chemical ionization-mass spectrometry (LC-APCI-MS) by using a Shimadzu HPLC apparatus (LC-10ADVP) coupled to a Shimadzu (LCMS-2020) quadrupole MS via a Shimadzu APCI interface. […]

HaCaT cells = experiment: Cell viability of HaCaT cells (MTT); format: cell-based, human; conditions: 20 μM
Method: Cell viability was measured after 6 h in HaCaT cells treated with CBD (20 μM) or vehicle by using the 3-(4,5-dimethylthiazol-2yl)-2,5-diphenyl tetrazolium bromide (MTT) colorimetric assay.
Briefly, after 6 h HaCaT cells were incubated with MTT (5 mg·ml-1) for 3 h at 37° C. in 5% CO2. After 3 h HaCaT cells were lysed with DMSO and incubated for 6 h at 37° C. in 5% CO2.
Absorbance was measured at 630 nm. Results are expressed as % of cell viability, where optical density values from vehicle-treated cells were defined as 100% of cell viability.

IL6 [1] = experiment: UVB-induced IL6 release in HaCaT keratinocytes, ELISA; format: cell-based, human; conditions: 3 μM
HPV-Ker keratinocytes = experiment: Summary score, SEB/TSLP-induced inflammation model (atopic dermatitis); format: cell-based, human; conditions: sum of +1 anti-inflammatory, 0 no effect, −1 pro-inflammatory, Table 3
MCP-2 = MCP-2 ELISA in supernatants of poly-(I:C)-stimulated HaCaT cells; format: cell-based, human
[2] = system: human epidermal keratinocytes; experiment: Summary score, UVB-induced inflammation model (solar dermatitis); format: cell-based; conditions: sum of +1 anti-inflammatory, 0 no effect, −1 pro-inflammatory, Table 2
[3] = system: human epidermal keratinocytes; experiment: Summary score, TLR3-induced inflammation model (microbial infection-induced dermatitis); format: cell-based; conditions: sum of +1 anti-inflammatory, 0 no effect, −1 pro-inflammatory, Table 1
IL8 [4] = experiment: UVB-induced IL8 mRNA expression in HaCaT keratinocytes, RT-qPCR; format: cell-based, human
AEA = AEA levels in poly-(I:C)-stimulated HaCaT cells (LC-APCI-MS); format: cell-based, human; conditions: CBD 20 μM, 6 h
Method: as §1, §2, §3

IL6 [5] = experiment: UVB-induced IL6 mRNA expression in HaCaT keratinocytes, RT-qPCR; format: cell-based, human; conditions: 0.3 μM
IL8 [6] = experiment: UVB-induced IL8 release in HaCaT keratinocytes, ELISA; format: cell-based, human; conditions: 0.3 μM
[7] = system: DNFB-induced allergic contact dermatitis (ACD); experiment: DNFB-induced allergic contact dermatitis (ACD) in mice, ear swelling; format: in vivo
Method: A total of 10 animals per group were used in the experiments described here.
Briefly, DNFB was diluted in acetone/olive oil (4:1 by vol.) immediately before use and eight-ten week-old female C57BL/6J mice were sensitized by painting 50 μl of 0.2% DNFB on the shaved abdomen on two consecutive days. Then, mice were challenged by painting 10 μl of 0.3% DNFB on both sides of one ear on day 5.
Ear swelling was measured 24, 48 and 72 h after this first challenge by measuring the difference in ear thickness between the unchallenged and the challenged ear using an engineer's micrometer. CBD (2.5, -5- and 10 mg·kg-1) was administered intraperitoneally (i.p.) on day 5 (the day of the first challenge with DNFB), 6 and, 7 after the initial sensitization with DNFB. CBD was dissolved in DMSO and Tween-20 1%.
For the determination of MCP-2, endocannabinoids, PEA and OEA, group means were compared using the one-way ANOVA followed by Newman-Keuls multiple comparison test or the Student's t-test. For the determination of cell viability, group means were compared using the Student's t-test. All determinations were performed at least in triplicate. For the determination of ear thickness, group means were compared using the one-way ANOVA followed by Tukey-Kramer multiple comparison test (n=10).

IL6 [8] = experiment: PolyIC-induced IL6 release in NHEK keratinocytes, ELISA; format: cell-based, human; conditions: NHEKs; concentration not singled out (0.3 and 3 μM tested)
human sebocytes = conditions: Oláh et al., 2014; cited from earlier work
IL8 [9] = experiment: PolyIC-induced IL8 release in NHEK keratinocytes, ELISA; format: cell-based, human; conditions: NHEKs; concentration not singled out (0.3 and 3 μM tested)
2-AG = 2-AG levels in poly-(I:C)-stimulated HaCaT cells (LC-APCI-MS); format: cell-based, human; conditions: CBD 20 μM, 6 h
Method: as §1, §2, §3

In the case of `C=C(C)[C@@H]1CCC(C)=C[C@H]1c1c(O)cc(CCCCC)cc1O` [CBD, Cannabidiol], the OEA levels (OEA) is reported as “No consistent effect”, the cytotoxicity (HaCaT cells) is reported as “not cytotoxic” and the “UVB-upregulated IL6 (ELISA)” value (IL6 [1]) is reported as “anti-inflammatory effects”. The SCORE (HPV-Ker keratinocytes; 0.3 μM) was −1, the SCORE (HPV-Ker keratinocytes; 3 μM) was 1 and the MCP-2 production (MCP-2; 20 μM, poly-(I:C)-stimulated HaCaT, 6 h) was “maximum effect”. The MCP-2 protein levels (MCP-2; 1, 5, 10 and 20 μM, poly-(I:C) 100 μg·ml-1, 6 h, vs vehicle) was “strong concentration-dependent reduction”, the MCP-2 protein levels (MCP-2; compound alone, 20 μM, absence of poly-(I:C), vs vehicle-treated HaCaT, data not shown) was “no significant variation” and the “potency in the inhibition of MCP-2 chemokine production relative to other phytocannabinoids tested” value (MCP-2; poly-(I:C)-stimulated keratinocytes) was “more potent”. It also gave an SCORE ([2]; 0.3 μM) of 5, an SCORE ([2]; 3 μM) of 1 and an SCORE ([3]; 0.3 μM) of 5. The SCORE ([3]; 3 μM) was 8, the “UVB-upregulated IL8 (RT-qPCR)” value (IL8 [4]; 0.3 μM) was “anti-inflammatory effects” and the “UVB-upregulated IL8 (RT-qPCR)” value (IL8 [4]; 3 μM) was “pro-inflammatory effects”. The “AEA levels, increase compared to poly-(I:C)-stimulated HaCaT cells” value (AEA) was −2.7 fold, the “AEA levels, increase compared to vehicle-treated HaCaT cells” value (AEA) was −8 fold and the “UVB-upregulated IL6 (RT-qPCR)” value (IL6 [5]) was “anti-inflammatory effects”. The “UVB-upregulated IL8 (ELISA)” value (IL8 [6]) was “anti-inflammatory effects”, the ear thickness ([7]; 2.5 mg·kg-1 i.p.) was “did not show any statistically significant effect” and the ear thickness ([7]; 5 mg·kg-1 i.p.) was “did not show any statistically significant effect”. For the same compound, the ear thickness ([7]; 10 mg·kg-1 i.p. on day 5, 6 and 7, 48 h after first challenge, vs control mice) was “reduced”, the ear thickness ([7]; 10 mg·kg-1 i.p. on day 5, 6 and 7, 72 h after first challenge, vs control mice) was “reduced” and the “PolyIC-induced elevated release of IL6” value (IL6 [8]) was “dose-dependent suppression”. The anti-acne effects (human sebocytes) was “exerted anti-acne effects”, the “PolyIC-induced elevated release of IL8” value (IL8 [9]) was “dose-dependent suppression” and the 2-AG levels (2-AG) was “No consistent effect”.
